Assay results from article PMC10058229, “Diverse cytomotive actins and tubulins share a polymerization switch mechanism conferring robust dynamics” (Science Advances, 2023).

Target: T1, BtubA*B (Prosthecobacter dejongeii, UniProt A0A7W7YIU5+A0A7W7YJ10, A0A7W7YIU5:R284G/A0A7W7YIU5:K286D/A0A7W7YIU5:F287G)
T1 construct: gene HNQ64_001272; BtubA M-loop triple mutant coexpressed with BtubB in E. coli C41(DE3); no tag mentioned; single protofilament polymer; Methods once print R286D instead of K286D
T1 sequence (A0A7W7YIU5 1-473 R284G/K286D/F287G): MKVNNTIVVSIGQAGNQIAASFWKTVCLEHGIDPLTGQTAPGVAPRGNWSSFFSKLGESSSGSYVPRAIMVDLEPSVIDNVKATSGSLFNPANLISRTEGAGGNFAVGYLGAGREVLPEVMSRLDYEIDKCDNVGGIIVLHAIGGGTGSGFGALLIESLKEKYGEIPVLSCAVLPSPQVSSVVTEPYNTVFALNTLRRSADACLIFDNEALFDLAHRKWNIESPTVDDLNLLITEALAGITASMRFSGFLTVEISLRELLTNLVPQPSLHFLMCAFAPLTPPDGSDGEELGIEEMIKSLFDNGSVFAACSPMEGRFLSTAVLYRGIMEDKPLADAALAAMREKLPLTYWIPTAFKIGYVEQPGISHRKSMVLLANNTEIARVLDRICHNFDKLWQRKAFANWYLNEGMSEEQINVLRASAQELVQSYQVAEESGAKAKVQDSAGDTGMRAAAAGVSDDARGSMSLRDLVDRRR
T1 sequence (A0A7W7YJ10 1-426): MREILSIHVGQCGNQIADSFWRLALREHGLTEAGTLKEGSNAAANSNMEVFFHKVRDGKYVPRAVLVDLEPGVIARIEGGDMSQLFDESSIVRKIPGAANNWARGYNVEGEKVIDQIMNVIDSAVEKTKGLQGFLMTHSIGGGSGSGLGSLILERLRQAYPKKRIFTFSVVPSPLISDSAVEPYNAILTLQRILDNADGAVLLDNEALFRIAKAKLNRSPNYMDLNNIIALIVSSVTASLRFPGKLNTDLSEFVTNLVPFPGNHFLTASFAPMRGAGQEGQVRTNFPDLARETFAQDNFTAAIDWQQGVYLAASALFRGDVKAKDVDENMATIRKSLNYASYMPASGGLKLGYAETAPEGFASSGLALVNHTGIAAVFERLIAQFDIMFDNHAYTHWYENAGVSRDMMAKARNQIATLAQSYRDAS
Assay: polymerization seen by cryo-EM (~[…] Å map)
Type: biochemical
Details: 5 mM GTP, 5 mM magnesium acetate, pH 7.7, 20 °C; nucleotide not resolved

Structure (SMILES): Nc1nc2c(ncn2[C@@H]2O[C@H](COP(=O)(O)OP(=O)(O)OP(=O)(O)O)[C@@H](O)[C@H]2O)c(=O)[nH]1 [GTP]
- polymerization seen by cryo-EM (~8 Å map): BtubA*B polymerizes in the presence of GTP and GMPCPP to form straight single protofilaments
